# Experimental data taken from PubChem BioAssay (NCI).
#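 Each compound was tested at five concentrations against cells in 96-well plates for 48 hours. GI50 marks 50% less growth. TGI denotes the concentration required for complete inhibition of growth.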
# Experiments:
# Experiment in all cases: NCI anticancer screen, dose series, 48 h
# NCI-H23 lung = tested on: NCI-H23 lung
# HCT-15 colon = tested on: HCT-15 colon
# HT29 colon = tested on: HT29 colon
# TK-10 renal = tested on: TK-10 renal
# UACC-62 melanoma = tested on: UACC-62 melanoma
# CAKI-1 renal = tested on: CAKI-1 renal
# SF-268 CNS = tested on: SF-268 CNS
# RXF 393 renal = tested on: RXF 393 renal
# OVCAR-4 ovarian = tested on: OVCAR-4 ovarian
# DU-145 prostate = tested on: DU-145 prostate
Structure (SMILES),TGI (NCI-H23 lung) [µM],TGI (HCT-15 colon) [µM],TGI (HT29 colon) [µM],TGI (TK-10 renal) [µM],TGI (UACC-62 melanoma) [µM],TGI (CAKI-1 renal) [µM],TGI (SF-268 CNS) [µM],TGI (RXF 393 renal) [µM],TGI (OVCAR-4 ovarian) [µM],GI50 (HCT-15 colon) [µM],GI50 (HT29 colon) [µM],GI50 (TK-10 renal) [µM],GI50 (UACC-62 melanoma) [µM],GI50 (CAKI-1 renal) [µM],GI50 (SF-268 CNS) [µM],GI50 (RXF 393 renal) [µM],GI50 (OVCAR-4 ovarian) [µM],GI50 (NCI-H23 lung) [µM],GI50 (DU-145 prostate) [µM],TGI (DU-145 prostate) [µM]
COc1ccc(C2=Nc3ccccc3SC(C)C2)cc1 (stereo unspecified),> 100,> 100,> 100,> 100,> 100,> 100,> 100,> 100,> 100,,,,,,,,,,,
CC(=O)[CH-]C(=O)c1ccccc1.CC(=O)[CH-]C(=O)c1ccccc1.COc1cccc([O-])c1[O-].[Ti+4],,> 100,> 100,> 100,> 100,> 100,> 100,> 100,> 100,50.2,64.5,> 100,39.9,> 100,47.6,30,54.3,,,
N#CCCN(CCC#N)C(=O)c1cccc(C(=O)N(CCC#N)CCC#N)c1,> 56,> 100,35.2,> 100,> 61.2,> 100,> 100,9.76,> 100,,,,,,,,,,,
CCC1=C(C)/C(=C/c2[nH]c(C(Br)Br)c(CC)c2C)N=C1C(Br)Br,> 100,> 100,> 100,> 100,> 100,,> 100,78.9,,,,,,,,,,,,
CNC(=S)N/N=C1\CC(c2ccccc2)Oc2ccccc21 (stereo unspecified),> 100,,> 100,> 100,> 100,> 100,> 100,> 100,> 100,,,,,,,,,,,
[N-]=[N+]=Nc1ccc(CCN2CCN(c3cccc(C(F)(F)F)c3)CC2)cc1I,> 100,> 100,> 100,> 100,> 100,> 100,> 100,> 100,> 100,,,,,,,,,,,
O=[N+]([O-])c1cc([N+](=O)[O-])c(Cl)c(Cl)c1Cl,8.04,,1.99,3.65,2.64,,3.92,1.86,3.16,,0.477,1.8,1.31,,1.73,0.636,1.78,2.69,1.57,2.98
N#CNC(N)=NCCO,> 100,> 100,> 100,> 100,> 100,> 100,> 100,68.3,> 100,,,,,,,,,,,
COc1cc(=O)oc(/C=C/C=O)c1C,46.7,,40.7,76.2,32.8,79.9,28.2,34.8,32.5,,,,,,,,,,,
[C-]#[O+].[Cl][Sn]([Cl])[Cl].[Cl][Sn]([Cl])[Cl].[Pt].c1ccc([PH+](c2ccccc2)c2ccccc2)cc1.c1ccc([PH+](c2ccccc2)c2ccccc2)cc1,37,> 100,> 100,52.3,> 100,,51.1,9.82,> 100,49.9,> 100,25.5,27.7,,23,1.57,56.1,13.7,,
COc1ccc(CN2C(=O)C(Cc3cc(OC)c(OC)c(C)c3OC)NC(=O)/C2=C/c2cc(OC)c(OC)c(C)c2OC)cc1 (stereo unspecified),> 100,,66.2,83.1,> 100,,> 100,71.2,82.5,,,,,,,,,,,
O=C(Cc1nc2ccccc2c(=O)n1-c1c(Cl)cccc1Cl)c1ccncc1,> 100,> 100,45.8,> 10,56.6,86.1,> 100,65.7,80.7,,,,,,,,,,,
CC1(C)OC(=O)[C@@](C)([C@H](O)c2ccccc2)O1,> 100,,> 100,> 100,> 100,> 100,> 100,> 100,> 100,,,,,,,,,,,
C[C@@H](C1CCC2C3C(=CC(=O)[C@@]21C)[C@H](C)[C@]1(CCC(=O)O1)C1OC31)[C@H]1C[C@]2(C)O[C@@](C)(O1)OC2(C)C (stereo partly specified),> 100,> 100,> 100,> 100,> 100,> 100,> 100,> 100,,,,,,,,,,,,
CC(C)(C)N/N=C(\Cc1occc(=O)c1O)C(=O)Nc1ccc([N+](=O)[O-])cc1[N+](=O)[O-],> 100,> 100,> 100,> 100,> 100,> 100,> 100,> 100,> 100,,,,,,,,,,,
CC(C)N(C(=O)C12C3C4C5C3C1(C(=O)N(C(C)C)C(C)C)C5(C#N)C42)C(C)C (stereo unspecified),> 100,> 100,> 100,> 100,> 100,> 100,> 100,,> 100,,,,,,,,,,,
CCOC(=O)C1=C(C)NC2SC(=O)/C(=C\c3ccccc3Cl)N2C1c1ccccc1 (stereo unspecified),> 100,> 100,> 100,> 100,> 100,> 100,> 100,> 100,,> 100,> 100,> 100,> 100,> 100,> 100,> 100,,> 100,> 100,> 100
O=C(Cn1c(=O)c(-c2ccccc2)nc2ccccc21)c1ccc(Cl)cc1,> 100,> 100,> 100,> 100,> 100,> 100,> 100,,> 100,> 100,41.7,25.7,> 100,67.5,> 100,,33.4,> 100,52.2,> 100
Cc1c(C(=O)CC(=O)C(=O)Nc2c(C(C)C)cccc2C(C)C)[n+](=O)c2ccccc2n1[O-],34,8.43,13.9,60.2,22.3,43,25.2,38.9,15.5,,,,,,,,,,,
